Results as given in US8426447B2, “Spiro-tricyclic ring compounds as beta-secretase modulators and methods of use” (Amgen Inc., priority 2008, dated 2013).
Each block holds one compound with its values, some of them ahead of it.

Tests used:
BACE1 [1] = target: T1, BACE1 (Homo sapiens, UniProt P56817); assay: In Vitro Enzymatic BACE FRET (Fluorescence Resonance Energy Transfer) Assay; type: biochemical
In short: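 One-hour incubation initiated by 50 nM quenched FRET peptide spanning the BACE cleavage site, in 0.05 M acetate (pH 4.2), 100 uM genapol, 10% DMSO final. Tris addition neutralizes pH to end the reaction before fluorescence measurement.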

BACE1 [2] = target: T1, BACE1; assay: In Vitro BACE Cell-based Assay (HEK cell assay): Aβ40 in conditioned medium of cells stably expressing Amyloid Precursor Protein, sandwich ELISA
In short: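 APP-expressing cells were cultured 24 h in DMEM/10% FBS, then treated 24 h with compounds in 10-point dose response (top 100 μM or 10 μM; 0.1% DMSO final). Secreted Aβ40 was quantified by sandwich ELISA (pAb40 capture, biotinylated 6E10 detection, Europium TRF); IC50 from percent inhibition versus concentration.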

[3] = Table 1, read-out: BACE1 FRET assay
[4] = Table 1, Aβ40, 24 h incubation, read-out: HEK cell assay
[5] = Table IV, class symbols, read-out: BACE1 FRET assay
[6] = Table IV, class symbols, read-out: HEK cell assay
[7] = in vitro BACE FRET enzyme assay, IC50 class symbols, read-out: BACE1 FRET assay
[8] = HEK cell-based assay, Aβ40 in conditioned medium, IC50 class symbols, read-out: HEK cell assay
[9] = HEK cells, read-out: HEK cell assay
[10] = Table III, IC50's in uM ranges, read-out: BACE1 FRET assay
[11] = Table III, IC50's in uM ranges, read-out: HEK cell assay

T1 sequence (P56817 46-501, species assumed): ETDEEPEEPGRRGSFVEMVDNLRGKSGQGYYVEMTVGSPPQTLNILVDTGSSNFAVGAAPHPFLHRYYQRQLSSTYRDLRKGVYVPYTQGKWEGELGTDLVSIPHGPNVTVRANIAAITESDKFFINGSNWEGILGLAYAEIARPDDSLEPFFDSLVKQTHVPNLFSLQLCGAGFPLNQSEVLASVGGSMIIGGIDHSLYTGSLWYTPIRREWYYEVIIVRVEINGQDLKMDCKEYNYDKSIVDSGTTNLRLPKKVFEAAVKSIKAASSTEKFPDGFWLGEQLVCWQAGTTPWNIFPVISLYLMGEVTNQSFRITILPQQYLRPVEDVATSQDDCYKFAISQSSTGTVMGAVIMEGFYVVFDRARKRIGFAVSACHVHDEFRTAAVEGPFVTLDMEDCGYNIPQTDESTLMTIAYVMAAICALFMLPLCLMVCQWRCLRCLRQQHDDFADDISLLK

- IC50 (BACE1 [1]; [5]): 1 to 5 µM
- IC50 (BACE1 [2]; [6]): 1 to 5 µM
SMILES: COc1ccc2c(c1)[C@]1(COC(N)=N1)c1cc(-c3cccc4ncccc34)ccc1O2 [compound 591]

- IC50 (BACE1 [1]; [5]): 1 to 5 µM
- IC50 (BACE1 [2]; [6]): 1 to 5 µM
SMILES: COc1ccc2c(c1)[C@]1(COC(N)=N1)c1cc(NC(=O)c3ccccc3)ccc1O2 [compound 616]

- IC50 (BACE1 [1]; read-out: BACE1 FRET assay): 0.1 to 1 µM
- IC50 (BACE1 [2]; read-out: HEK cell assay): 0.1 to 1 µM
SMILES: CCCOc1cc2c(cc1F)Oc1ccc(-c3cccnc3)cc1[C@]21COC(N)=N1 [compound 939]

- IC50 (BACE1 [1]; [5]): 0.1 to 1 µM
- IC50 (BACE1 [2]; [6]): 1 to 5 µM
SMILES: CC(C)(C)C#Cc1ccc2c(c1)[C@]1(COC(N)=N1)c1cc(-c3cccnc3)cnc1O2 [compound 896]

- IC50 (BACE1 [1]; [5]): < 0.1 µM
- IC50 (BACE1 [2]; [6]): < 0.1 µM
SMILES: CC1(COc2ccc3c(c2)[C@@]2(COC(N)=N2)c2cc(-c4cncnc4)cc(F)c2O3)COC1 [compound 795]

- IC50 (BACE1 [1]; [5]): < 0.1 µM
- IC50 (BACE1 [2]; [6]): 0.1 to 1 µM
SMILES: COc1cccc(-c2ccc3c(c2)[C@]2(COC(N)=N2)c2cc(-c4cncnc4)ccc2O3)c1 [compound 893]

- IC50 (BACE1 [1]; read-out: BACE1 FRET assay): < 0.1 µM
- IC50 (BACE1 [2]; read-out: HEK cell assay): > 5 µM
SMILES: NC1=N[C@]2(CO1)c1cc(/C=C/C(=O)O)ccc1Oc1ccc(-c3cccnc3)cc12 [compound 949]

- IC50 (BACE1 [1]; [5]): < 0.1 µM
- IC50 (BACE1 [2]; [6]): < 0.1 µM
SMILES: CCOc1ccc(-c2cnc3c(c2)[C@]2(COC(N)=N2)c2cc(OCC(C)(C)C)ccc2O3)cn1 [compound 804]

- IC50 (BACE1 [1]; [5]): < 0.1 µM
- IC50 (BACE1 [2]; [6]): < 0.1 µM
SMILES: Cn1cc(-c2ccc3c(c2)[C@]2(COC(N)=N2)c2cc(-c4ccc(F)nc4)ccc2O3)cn1 [compound 631]

- IC50 (BACE1 [1]; read-out: BACE1 FRET assay): < 0.1 µM
- IC50 (BACE1 [2]; read-out: HEK cell assay): 0.1 to 1 µM
SMILES: CC1(COc2ccc3c(c2)[C@@]2(COC(N)=N2)c2cc(C#CC4CC4)cnc2O3)COC1 [compound 967]

- IC50 (BACE1 [1]; [5]): < 0.1 µM
- IC50 (BACE1 [2]; [6]): 0.1 to 1 µM
SMILES: NC1=N[C@@]2(CO1)c1cc(-c3cncnc3)ccc1Oc1ccc(-c3cccc(C(F)(F)F)c3)cc12 [compound 809]

- IC50 (BACE1 [1]; [5]): 0.1 to 1 µM
- IC50 (BACE1 [2]; [6]): 0.1 to 1 µM
SMILES: COc1ccc2c(c1)[C@]1(COC(N)=N1)c1cc(NC(=O)c3ccccn3)ccc1O2 [compound 615]

- IC50 (BACE1 [1]; [5]): 0.1 to 1 µM
- IC50 (BACE1 [2]; [6]): 0.1 to 1 µM
SMILES: COCC(=O)Nc1ccc2c(c1)[C@@]1(COC(N)=N1)c1cc(OC)ccc1O2 [compound 613]

- IC50 (BACE1 [1]; [5]): 0.1 to 1 µM
- IC50 (BACE1 [2]; [6]): 1 to 5 µM
SMILES: CC(C)(C)COc1ccc2c(c1)[C@]1(COC(N)=N1)c1cc(-c3ccc(F)nc3)cnc1O2 [compound 869]

- IC50 (BACE1 [1]; read-out: BACE1 FRET assay): < 0.1 µM
- IC50 (BACE1 [2]; read-out: HEK cell assay): < 0.1 µM
SMILES: CC(C)C#Cc1cnc2c(c1)[C@]1(COC(N)=N1)c1cc(-c3cncnc3)ccc1O2 [compound 743]

- IC50 (BACE1 [1]; [5]): 0.1 to 1 µM
- IC50 (BACE1 [2]; [6]): 1 to 5 µM
SMILES: CC(C)(C)COc1ccc2c(c1)[C@]1(COC(N)=N1)c1cc(-c3ncccn3)ccc1O2 [compound 885]

- IC50 (BACE1 [1]; [5]): < 0.1 µM
- IC50 (BACE1 [2]; [6]): < 0.1 µM
SMILES: COc1cc(F)c2c(c1)[C@]1(COC(N)=N1)c1cc(-c3cncnc3)ccc1O2 [compound 581]

- IC50 (BACE1 [1]; read-out: BACE1 FRET assay): < 0.1 µM
- IC50 (BACE1 [2]; read-out: HEK cell assay): < 0.1 µM
SMILES: NC1=N[C@@]2(CO1)c1cc(-c3cccnc3)ccc1Oc1cnc(C3=CCOCC3)cc12 [compound 790]

- IC50 (BACE1 [1]; [5]): 0.1 to 1 µM
- IC50 (BACE1 [2]; [6]): 0.1 to 1 µM
SMILES: COC(=O)CCc1ccc2c(c1)[C@]1(COC(N)=N1)c1cc(-c3cncnc3)ccc1O2 [compound 877]

- IC50 (BACE1 [1]; read-out: BACE1 FRET assay): < 0.1 µM
- IC50 (BACE1 [2]; read-out: HEK cell assay): < 0.1 µM
SMILES: NC1=N[C@]2(CO1)c1cc(C#CC3(O)COC3)ccc1Oc1ccc(-c3cccnc3)cc12 [compound 685]

- IC50 (BACE1 [1]; read-out: BACE1 FRET assay): > 5 µM
- IC50 (BACE1 [2]; read-out: HEK cell assay): > 5 µM
SMILES: CC(C)(C)OC(=O)Cc1ccc2c(c1)[C@]1(COC(N)=N1)c1cc(Br)ccc1O2 [compound 707]

- IC50 (BACE1 [1]; [5]): < 0.1 µM
- IC50 (BACE1 [2]; [6]): 0.1 to 1 µM
SMILES: NC1=N[C@@]2(CO1)c1cc(-c3cccnc3)ccc1Oc1ccc(-c3csc(C4CC4)n3)cc12 [compound 632]

- IC50 (BACE1 [1]; read-out: BACE1 FRET assay): 0.1 to 1 µM
- IC50 (BACE1 [2]; read-out: HEK cell assay): 1 to 5 µM
SMILES: CC(C)(C)COc1ccc2c(c1)[C@]1(COC(N)=N1)c1cc(C3CCOCC3)ccc1O2 [compound 747]

- IC50 (BACE1 [1]; [5]): < 0.1 µM
- IC50 (BACE1 [2]; [6]): < 0.1 µM
SMILES: CC(C)(C)COc1ccc2c(c1)[C@@]1(COC(N)=N1)c1cc(-c3ccccc3)cnc1O2 [compound 807]

The next lines start with the compound.

SMILES: Cc1ccc2c(c1)Oc1ccc(Br)cc1C21COC(N)=N1 (stereo not drawn) [Example 37, 2′-bromo-6′-methylspiro[1,3-oxazole-4,9′-xanthen]-2-amine]
- IC50 (BACE1 [1]; [3]): > 5 µM
- IC50 (BACE1 [2]; [4]): > 5 µM

SMILES: NC1=N[C@@]2(CO1)c1cc(-c3cccnc3F)ccc1Oc1cnc(C3=CCCCO3)cc12 [compound 371]
- IC50 (BACE1 [1]; BACE1 FRET assay (uM)): < 0.1 µM
- IC50 (BACE1 [2]; HEK cell assay (uM)): < 0.1 µM

SMILES: Cc1cnc(F)c(-c2ccc3c(c2)[C@@]2(COC(N)=N2)c2cccnc2O3)c1 [compound 571]
- IC50 (BACE1 [1]; [5]): 0.1 to 1 µM
- IC50 (BACE1 [2]; [6]): 0.1 to 1 µM

SMILES: NC1=NC2(CO1)c1cc(-c3cccnc3)ccc1Oc1c2cc(-c2cccnc2)nc1F (stereo not drawn) [compound 301, 1-fluoro-3,7-di(pyridin-3-yl)-5′H-spiro[chromeno[2,3-c]pyridine-5,4′-oxazol]-2′-amine]
- IC50 (BACE1 [1]; [7]): < 0.1 µM
- IC50 (BACE1 [2]; [8]): < 0.1 µM

SMILES: CC(C)(C)C#Cc1ccc2c(n1)[C@]1(COC(N)=N1)c1cc(-c3cncnc3)ccc1O2 [compound 526]
- IC50 (BACE1 [1]; read-out: BACE1 FRET assay): 0.1 to 1 µM
- IC50 (BACE1 [2]; [9]): 0.1 to 1 µM

SMILES: CC(C)(C)/C=C/c1cc2c(cn1)Oc1ccc(-c3cccnc3)cc1[C@@]21COC(N)=N1 [compound 397]
- IC50 (BACE1 [1]; [7]): < 0.1 µM
- IC50 (BACE1 [2]; [8]): < 0.1 µM

SMILES: NC1=N[C@]2(CO1)c1cc(C#CC3CCCCC3)ccc1Oc1ccc(-c3cncnc3)cc12 [compound 138]
- IC50 (BACE1 [1]; [10]): < 0.1 µM
- IC50 (BACE1 [2]; [11]): 0.1 to 1 µM

SMILES: CC(C)(O)COc1ccc2c(c1)[C@]1(COC(N)=N1)c1cc(Br)ccc1O2 [compound 210]
- IC50 (BACE1 [1]; [10]): 1 to 5 µM
- IC50 (BACE1 [2]; [11]): 1 to 5 µM

SMILES: CC(C)(C)/C=C/c1cnc2c(c1)[C@]1(COC(N)=N1)c1cc(-c3cncnc3)ccc1O2 [compound 379]
- IC50 (BACE1 [1]; [7]): < 0.1 µM
- IC50 (BACE1 [2]; [8]): < 0.1 µM

SMILES: NC1=N[C@@]2(CO1)c1cc(-c3cncc(F)c3)ccc1Oc1cnc(C3=CCOCC3)cc12 [compound 368, (5S)-3-(3,6-dihydro-2H-pyran-4-yl)-7-(5-fluoro-3-pyridinyl)spiro[chromeno[2,3-c]pyridine-5,4′-[1,3]oxazol]-2′-amine]
- IC50 (BACE1 [1]; [7]): < 0.1 µM
- IC50 (BACE1 [2]; [8]): < 0.1 µM

SMILES: NC1=N[C@@]2(CO1)c1cc(-c3cccnc3F)ccc1Oc1ncccc12 [compound 570]
- IC50 (BACE1 [1]; [5]): < 0.1 µM
- IC50 (BACE1 [2]; [6]): 0.1 to 1 µM

SMILES: COc1ccc2c(c1)C1(COC(N)=N1)c1cc(-c3ccccc3Cl)ccc1O2 (stereo not drawn) [Example 28, 2′-(2-chlorophenyl)-7′-methoxyspiro[1,3-oxazole-4,9′-xanthen]-2-amine]
- IC50 (BACE1 [1]; [3]): > 5 µM
- IC50 (BACE1 [2]; [4]): 1 to 5 µM

SMILES: Cc1ncccc1-c1ccc2c(c1)[C@@]1(COC(N)=N1)c1cc(OCC(C)(C)C)ccc1O2 [Example 79, (4S)-2′-(2,2-dimethylpropoxy)-7′-(2-methyl-3-pyridinyl)spiro[1,3-oxazole-4,9′-xanthen]-2-amine]
- IC50 (BACE1 [1]; Table II, read-out: BACE1 FRET assay): 0.1 to 1 µM
- IC50 (BACE1 [2]; Table II, Aβ40, 24 h incubation, read-out: HEK cell assay): 0.1 to 1 µM

SMILES: Cc1ccc2c(c1)Oc1ccc(-c3ccccc3Cl)cc1C21COC(N)=N1 (stereo not drawn) [Example 29, 2′-(2-chlorophenyl)-6′-methylspiro[1,3-oxazole-4,9′-xanthen]-2-amine]
- IC50 (BACE1 [1]; [3]): > 5 µM
- IC50 (BACE1 [2]; [4]): > 5 µM

SMILES: CC(C)(C)COc1cnc2c(c1)[C@]1(COC(N)=N1)c1cc(-c3cccc(C#N)c3)ccc1O2 [compound 358]
- IC50 (BACE1 [1]; [7]): < 0.1 µM
- IC50 (BACE1 [2]; [8]): < 0.1 µM

SMILES: CC1(COc2cnc3c(c2)[C@]2(COC(N)=N2)c2cc(-c4ccccc4F)ccc2O3)COC1 [compound 458]
- IC50 (BACE1 [1]; read-out: BACE1 FRET assay): < 0.1 µM
- IC50 (BACE1 [2]; [9]): < 0.1 µM

SMILES: CC(C)(F)COc1ccc2c(c1)[C@]1(COC=N1)c1cc(Br)c(N)nc1O2 [compound 171]
- IC50 (BACE1 [1]; [10]): 0.1 to 1 µM
- IC50 (BACE1 [2]; [11]): 1 to 5 µM

SMILES: C[C@@H]1CN(c2cc(F)c3c(c2)[C@]2(COC(N)=N2)c2cc(-c4cccnc4)ccc2O3)C[C@H](C)O1 [compound 483]
- IC50 (BACE1 [1]; read-out: BACE1 FRET assay): < 0.1 µM
- IC50 (BACE1 [2]; [9]): < 0.1 µM
